From ChEMBL document CHEMBL2311411, “Lignans from Schisandra sphenathera Rehd. et Wils. and semisynthetic schisantherin A analogues: absolute configuration, and their estrogenic and anti-proliferative activity” (Eur J Med Chem, 2013)
Calls of active or inactive are those of the source. No cut-off for these calls is given here.

Tests used:
[1] = Toxicity in brine shrimp larvae assessed as mortality after 24 hrs by microtiter plate analysis; assay type: organism-based; conditions: artemia salina, in vivo
MCF7 [2] = experiment: Estrogenic activity in human MCF7 cells at 5 uM by luciferase reporter gene assay; assay type: functional, cell-based
[3] = Cytotoxicity against human U87 cells after 72 hrs by MTT assay; assay type: functional, cell-based, U-87MG ATCC
MCF7 [4] = experiment: Estrogenic activity in human MCF7 cells at 1 uM by luciferase reporter gene assay; assay type: functional, cell-based
HeLa = experiment: Cytotoxicity against human HeLa cells after 72 hrs by MTT assay; assay type: functional, cell-based
[5] = Cytotoxicity against mouse LLC cells after 72 hrs by MTT assay; assay type: functional, cell-based; conditions: Lewis lung carcinoma
SMMC-7721 = experiment: Cytotoxicity against human SMMC7721 cells after 72 hrs by MTT assay; assay type: functional, cell-based; conditions: SMMC-7721, 72 h
MCF7 [6] = experiment: Estrogenic activity in human MCF7 cells by luciferase reporter gene assay; assay type: functional, cell-based
[7] = biological target: T1, DNA-binding protein inhibitor ID-1 (Homo sapiens) (UniProt P41134); experiment: Inhibition of ID1 in human U87 cells at 100 uM by luciferase reporter gene assay; assay type: cell-based; conditions: U-87MG ATCC
T1 sequence (whole entry): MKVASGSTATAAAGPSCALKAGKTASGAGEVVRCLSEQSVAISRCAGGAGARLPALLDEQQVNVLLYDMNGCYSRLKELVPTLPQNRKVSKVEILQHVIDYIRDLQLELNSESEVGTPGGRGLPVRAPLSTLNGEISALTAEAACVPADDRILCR

[8] = Homo sapiens, U-87 MG, 72 h, read-out: IC50

| SMILES | IC50 [3, 8] [µM] | IC50 ([3]; u-87mg atcc) | inhibition [7] [%] | other results |
| --- | --- | --- | --- | --- |
| CC(=O)O[C@@H]1C[C@H](O)[C@@]23CO[C@@H](O)[C@]1(C)[C@@H]2C[C@@H](O)[C@]1(C)[C@@H]3C(=O)[C@H](OC(C)=O)[C@@]2(C)[C@H](c3ccoc3)C[C@H]3O[C@]321 [TOOSENDANIN] |  |  |  | LC50 at 24 h [1]: < 1 µg/mL |
| COc1cc([C@H]2OC[C@]3(O)[C@@H](c4ccc(O)c(OC)c4)OC[C@]23O)ccc1O |  |  |  | Activity (MCF7 [2]): Active |
| COc1cc2c(c(OC)c1OC)-c1c(cc(OC)c(OC)c1OC)C[C@](C)(O)[C@@H](C)C2 [SCHIZANDRIN] | > 100 |  |  | LC50 at 24 h [1]: > 100 µg/mL; Activity (MCF7 [4]): Active; IC50 (HeLa): > 100 µM; IC50 [5]: > 100 µM; IC50 (SMMC-7721): > 100 µM |
| COc1cc([C@H]2OC[C@]3(O)[C@@H](c4ccc(O)c(OC)c4)OC[C@H]23)ccc1O |  |  |  | Activity (MCF7 [2]): Active |
| C[C@]12CC[C@@H]3c4ccc(O)cc4CC[C@H]3[C@@H]1CC[C@@H]2O |  |  |  | Activity (MCF7 [6]): Dose-dependent effect |
| CCCCC(=O)O[C@H]1c2cc(OC)c(OC)c(OC)c2-c2c(cc3c(c2OC)OCO3)C[C@H](C)[C@]1(C)O |  | Not Active | 36.3 |  |
| CCCCCCCCCCCC(=O)O[C@H]1c2cc(OC)c(OC)c(OC)c2-c2c(cc3c(c2OC)OCO3)C[C@H](C)[C@]1(C)O | 70 |  | 32.7 |  |
| CCCCCCCCCCCCCCCC(=O)O[C@H]1c2cc(OC)c(OC)c(OC)c2-c2c(cc3c(c2OC)OCO3)C[C@H](C)[C@]1(C)O |  | Not Active | 4.8 |  |
| COc1c2c(cc3c1-c1c(cc4c(c1OC)OCO4)C[C@H](C)[C@H](C)C3)OCO2 [SCHISANDRIN C] | > 100 |  |  | IC50 (HeLa): > 100 µM; IC50 [5]: > 100 µM; IC50 (SMMC-7721): > 100 µM |
| CCCC(=O)O[C@H]1c2cc(OC)c(OC)c(OC)c2-c2c(cc3c(c2OC)OCO3)C[C@H](C)[C@]1(C)O |  | Not Active | 36.6 |  |
| COc1ccc([C@H]2OC[C@]3(O)[C@@H](c4ccc(OC)c(O)c4)OC[C@H]23)cc1O |  |  |  | LC50 at 24 h [1]: > 100 µg/mL |
| CCCCCCC(=O)O[C@H]1c2cc(OC)c(OC)c(OC)c2-c2c(cc3c(c2OC)OCO3)C[C@H](C)[C@]1(C)O | 61.7 |  | 57.8 |  |
| COc1cc2c(c(OC)c1OC)-c1c(cc3c(c1OC)OCO3)C[C@H](C)[C@](C)(O)[C@H]2O [SCHISANTHEROL A] |  | Not Active | 1 |  |
| COc1cc2c(c(OC)c1OC)-c1c(cc3c(c1OC)OCO3)C[C@H](C)[C@]1(CO1)[C@H]2OC(=O)c1ccccc1 [SCHISANDRIN A1] | > 100 |  |  | LC50 at 24 h [1]: 97.5 µg/mL; IC50 (HeLa): 50.8 µM; IC50 [5]: > 100 µM; IC50 (SMMC-7721): > 100 µM |
| COc1cc(C=O)c(-c2c(C[C@H](C)C(C)=O)cc3c(c2OC)OCO3)c(OC)c1OC |  | Not Active | 46.1 |  |
| CCCCCCCC(=O)O[C@H]1c2cc(OC)c(OC)c(OC)c2-c2c(cc3c(c2OC)OCO3)C[C@H](C)[C@]1(C)O |  | Not Active | 57.6 |  |
| CCCCCCCCCC(=O)O[C@H]1c2cc(OC)c(OC)c(OC)c2-c2c(cc3c(c2OC)OCO3)C[C@H](C)[C@]1(C)O | 58.8 |  | 46.9 |  |
| CCCCCC(=O)O[C@H]1c2cc(OC)c(OC)c(OC)c2-c2c(cc3c(c2OC)OCO3)C[C@H](C)[C@]1(C)O | 67.4 |  | 63.7 |  |
| CCCCCCCCCCCCCC(=O)O[C@H]1c2cc(OC)c(OC)c(OC)c2-c2c(cc3c(c2OC)OCO3)C[C@H](C)[C@]1(C)O |  | Not Active | 21.4 |  |
